Experimental data taken from US12454529B2, “Piperazine cyclic ureas” (SIRONAX LTD., priority 2020, dated 2025).

test system: HT-29 cells; assay: HT-29 cell necrosis/necroptosis inhibition (TNF-α + SMAC mimetic + zVAD-FMK; CellTiter-Glo cell viability); format: cell-based; settings: HT-29 cells, TNF-α 10 ng/ml + SMAC mimetic 6 μM + zVAD-FMK 10 μM, 20 hours; geometric mean, 10 points in duplicate; read-out: EC50 (Cell activity; Necrosis/Necroptosis Inhibitory Activity, Compounds 143-323)
How it was run: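 Necroptosis was driven by TNF-α 10 ng/ml plus SMAC mimetic 6 μM and zVAD-FMK 10 μM in serum-free medium, with compounds as a 10-point threefold titration. After 20 h at 37 °C, ATP-based luminescence was read; EC50 values are geometric means of duplicate curves.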

SMILES	EC50 [nM]
Cc1nc(C)n(-c2nc(N3CCN(C(=O)N4N=CCC4c4ncc(C)s4)CC3)ncc2F)n1 (stereo not drawn) [Compound 231, (4-(4-(3,5-dimethyl-1H-1,2,4-triazol-1-yl)-5-fluoropyrimidin-2-yl)piperazin-1-yl)(5-(5-methylthiazol-2-yl)-4,5-dihydro-1H-pyrazol-1-yl)methanone]	0.1 to 100

same assay, conditions: Homo sapiens, HT-29, 20 h, read-out: EC50 (Cell activity; Necrosis/Necroptosis Inhibitory Activity, Compounds 1-142)

SMILES	EC50 [nM]
Cc1nn(C[C@H]2CO2)c(C)c1-c1nc(N2CCN(C(=O)N3N=CC[C@H]3c3cc(F)cc(C#N)c3)CC2)ncc1F [Compound 134, 3-((S)-1-(4-(4-(3,5-dimethyl-1-(((S)-oxiran-2-yl)methyl)-1H-pyrazol-4-yl)-5-fluoropyrimidin-2-yl)piperazine-1-carbonyl)-4,5-dihydro-1H-pyrazol-5-yl)-5-fluorobenzonitrile]	0.1 to 100

same assay, conditions: Homo sapiens; HT-29 cells, TNF-α 10 ng/ml + SMAC mimetic 6 μM + zVAD-FMK 10 μM, 20 hours; geometric mean, 10 points in duplicate; read-out: EC50 (Cell activity; Necrosis/Necroptosis Inhibitory Activity, Compounds 1-142)

SMILES	EC50 [nM]
N#Cc1cc(F)cc([C@@H]2CC=NN2C(=O)N2CCN(c3ncc(F)c(-n4cnc(Cl)n4)n3)CC2)c1 [Compound 126, (S)-3-(1-(4-(4-(3-chloro-1H-1,2,4-triazol-1-yl)-5-fluoropyrimidinyl)piperazine-1-carbonyl)-4,5-dihydro-1H-pyrazol-5-yl)-5-fluorobenzonitrile]	0.1 to 100
Cc1nn(CC(N)=O)cc1-c1nc(N2CCN(C(=O)N3N=CC[C@H]3c3cc(F)cc(C#N)c3)CC2)ncc1F [Compound 82]	0.1 to 100
Cc1nn(C)c(C)c1-c1nc(N2CCN(C(=O)N3N=CC[C@H]3c3cc(F)cc(F)c3)CC2)ncc1F [Compound 58, (S)-(5-(3,5-difluorophenyl)-4,5-dihydro-1H-pyrazol-1-yl)(4-(5-fluoro-4-(1,3,5-trimethyl-1H-pyrazol-4-yl)pyrimidin-2-yl)piperazin-1-yl)methanone]	0.1 to 100
NC(=O)c1cnn(-c2ccnc(N3CCN(C(=O)N4N=CC[C@H]4c4ccccc4)CC3)n2)c1 [Compound 11, (S)-1-(2-(4-(5-phenyl-4,5-dihydro-1H-pyrazole-1-carbonyl)piperazin-1-yl)pyrimidin-4-yl)-1H-pyrazole-4-carboxamide]	0.1 to 100
Cc1nn(CC2CC2)c(C)c1-c1nc(N2CCN(C(=O)N3N=CC[C@H]3c3cc(F)cc(F)c3)CC2)ncc1F [Compound 121, (S)-(4-(4-(1-(cyclopropylmethyl)-3,5-dimethyl-1H-pyrazol-4-yl)fluoropyrimidin-2-yl)piperazin-1-yl)(5-(3,5-difluorophenyl)-4,5-dihydro-1H-pyrazol-1-yl)methanone]	0.1 to 100
NC(=O)Cn1ccc(-c2nc(N3CCN(C(=O)N4N=CC[C@H]4c4ccccc4)CC3)ncc2F)n1 [Compound 77]	0.1 to 100
Cn1ncc(Cl)c1-c1nc(N2CCN(C(=O)N3N=CC[C@H]3c3cc(F)cc(F)c3)CC2)ncc1F [Compound 68, (S)-(4-(4-(4-chloro-1-methyl-1H-pyrazol-5-yl)-5-fluoropyrimidin-2-yl)piperazin-1-yl)(5-(3,5-difluorophenyl)-4,5-dihydro-1H-pyrazol-1-yl)methanone]	0.1 to 100
Cc1nn(CC(N)=O)cc1-c1nc(N2CCN(C(=O)N3N=CC[C@H]3c3cc(F)cc(F)c3)CC2)ncc1F [Compound 18, (S)-2-(4-(2-(4-(5-(3,5-difluorophenyl)-4,5-dihydro-1H-pyrazole-1-carbonyl)piperazin-1-yl)-5-fluoropyrimidin-4-yl)-3-methyl-1H-pyrazol-1-yl)acetamide]	0.1 to 100
Cc1nc(C)c(-c2nc(N3CCN(C(=O)N4N=CC[C@H]4c4cc(F)cc(F)c4)CC3)ncc2F)s1 [Compound 55, (S)-(5-(3,5-difluorophenyl)-4,5-dihydro-1H-pyrazol-1-yl)(4-(4-(2,4-dimethylthiazol-5-yl)-5-fluoropyrimidin-2-yl)piperazin-1-yl)methanone]	0.1 to 100

same assay, conditions: Homo sapiens; HT-29 cells, TNF-α 10 ng/ml + SMAC mimetic 6 μM + zVAD-FMK 10 μM, 20 hours; geometric mean, 10 points in duplicate; read-out: EC50 (Cell activity; Necrosis/Necroptosis Inhibitory Activity, Compounds 143-323)

SMILES	EC50 [nM]
Cc1c(-c2nc(N3CCN(C(=O)N4N=CC[C@H]4c4cc(F)cc(C#N)c4)CC3)ncc2F)c(CO)nn1C [Compound 165, (S)-3-fluoro-5-(1-(4-(5-fluoro-4-(3-(hydroxymethyl)-1,5-dimethyl-1H-pyrazol-4-yl)pyrimidin-2-yl)piperazine-1-carbonyl)-4,5-dihydro-1H-pyrazol-5-yl)benzonitrile]	0.1 to 100
Cc1ncn(-c2nc(N3CCN(C(=O)N4N=CC[C@H]4c4cncc(F)c4)CC3)ncc2F)n1 [Compound 311, (S)-(4-(5-fluoro-4-(3-methyl-1H-1,2,4-triazol-1-yl)pyrimidin-2-yl)piperazin-1-yl)(5-(5-fluoropyridin-3-yl)-4,5-dihydro-1H-pyrazol-1-yl)methanone]	0.1 to 100
Cc1nc(C)n(-c2nc(N3CCN(C(=O)N4N=CC[C@@H]4c4cnc(C)s4)CC3)ncc2F)n1 [Compound 239, (R)-(4-(4-(3,5-dimethyl-1H-1,2,4-triazol-1-yl)-5-fluoropyrimidinyl)piperazin-1-yl)(5-(2-methylthiazol-5-yl)-4,5-dihydro-1H-pyrazol-1-yl)methanone]	1000 to 10000
Cc1nc(C(N)=O)nn1-c1nc(N2CCN(C(=O)N3N=CC[C@H]3c3cncc(F)c3)CC2)ncc1F [Compound 253, (S)-1-(5-fluoro-2-(4-(5-(5-fluoropyridin-3-yl)-4,5-dihydro-1H-pyrazole-1-carbonyl)piperazin-1-yl)pyrimidin-4-yl)-5-methyl-1H-1,2,4-triazole-3-carboxamide]	0.1 to 100
Cc1nn(-c2nc(N3CCN(C(=O)N4N=CC[C@H]4c4cc(F)cc(C#N)c4)CC3)ncc2F)c(C)c1NC(=O)CC1CC1 [Compound 195, (S)—N-(1-(2-(4-(5-(3-cyano-5-fluorophenyl)-4,5-dihydro-1H-pyrazole-1-carbonyl)piperazin-1-yl)-5-fluoropyrimidin-4-yl)-3,5-dimethyl-1H-pyrazol-4-yl)-2-cyclopropylacetamide]	0.1 to 100
Cc1ncc(C2CC=NN2C(=O)N2CCN(c3nc(-c4c(C)cnn4C)ccc3F)CC2)s1 (stereo not drawn) [Compound 270, (4-(6-(1,4-dimethyl-1H-pyrazol-5-yl)-3-fluoropyridin-2-yl)piperazin-1-yl)(5-(2-methylthiazol-5-yl)-4,5-dihydro-1H-pyrazol-1-yl)methanone]	0.1 to 100
Cc1c(-c2nc(N3CCN(C(=O)N4N=CC[C@H]4c4cc(F)cc(F)c4)CC3)ncc2F)c(C(F)(F)F)nn1C [Compound 198, (S)-(5-(3,5-difluorophenyl)-4,5-dihydro-1H-pyrazol-1-yl)(4-(4-(1,5-dimethyl-3-(trifluoromethyl)-1H-pyrazol-4-yl)-5-fluoropyrimidin-2-yl)piperazin-1-yl)methanone]	0.1 to 100
Cc1nc(C)n(-c2nc(N3C[C@@H](C)N(C(=O)N4N=CC[C@H]4c4cc(F)cc(C#N)c4)[C@@H](C)C3)ncc2F)n1 [Compound 146, 3-((S)-1-((2S,6R)-4-(4-(3,5-dimethyl-1H-1,2,4-triazol-1-yl)-5-fluoropyrimidin-2-yl)-2,6-dimethylpiperazine-1-carbonyl)-4,5-dihydro-1H-pyrazol-5-yl)-5-fluorobenzonitrile]	1000 to 10000
Cc1cnn(C)c1-c1ncc(F)c(N2CCN(C(=O)N3N=CCC3c3cncs3)CC2)n1 (stereo not drawn) [Compound 159, (4-(2-(1,4-dimethyl-1H-pyrazol-5-yl)-5-fluoropyrimidin-4-yl)piperazin-1-yl)(5-(thiazol-5-yl)-4,5-dihydro-1H-pyrazol-1-yl)methanone]	0.1 to 100
Cc1nc(C(F)(F)F)nn1-c1nc(N2CCN(C(=O)N3N=CC[C@H]3c3cc(F)cc(F)c3)CC2)ncc1F [Compound 203, (S)-(5-(3,5-difluorophenyl)-4,5-dihydro-1H-pyrazol-1-yl)(4-(5-fluoro-4-(5-methyl-3-(trifluoromethyl)-1H-1,2,4-triazol-1-yl)pyrimidin-2-yl)piperazin-1-yl)methanone]	0.1 to 100
